Experimental data as given in patent publication US10294302B2, “Therapeutic method and medicament for HTLV-1 associated myelopathy” (priority 2012, dated 2019).
Where two headings read alike, the source gives them in different places.

B1: Mogamulizumab (antibody, chains of the INN, looked up, V domains shown)
VH: EVQLVESGGDLVQPGRSLRLSCAASGFIFSNYGMSWVRQAPGKGLEWVATISSASTYSYYPDSVKGRFTISRDNAKNSLYLQMNSLRVEDTALYYCGRHSDGNFAFGYWGQGTLVTVSS
VL: DVLMTQSPLSLPVTPGEPASISCRSSRNIVHINGDTYLEWYLQKPGQSPQLLIYKVSNRFSGVPDRFSGSGSGTDFTLKISRVEAEDVGVYYCFQGSLLPWTFGQGTKVEIK
notes: anti-human CCR4 humanized antibody, manufactured by Kyowa Hakko Kirin

Assays:
[1] = test system: HTLV-1 proviral DNA in PBMCs derived from HAM patients; assay: Amount of HTLV-1 proviral DNA in PBMCs by real time-PCR; type: cell-based
Protocol: Then, genomic DNAs were extracted from PBMCs of HAM patients using phenol/chloroform.
(§1) Real time-polymerase chain reaction (hereinafter, abbreviated to PCR) was performed using the extracted genomic DNA as a template, and TaqMan probes for HTLV-1 pX region and human β-actin, and a primer set of each gene.
(§2) As a standard sample of HTLV-1 pX, a genomic DNA derived from HTLV-1 infected rat TARL2 cell line where 1 copy/cell of HTLV-1 pX region was integrated was used, and as a standard sample of β-actin, a genomic DNA derived from PBMC of a normal person was used to perform PCR at the same time and to obtain a standard curve. The copy numbers of pX and β-actin of each sample were calculated using the standard curve, and the amount of HTLV-1 proviral DNA was determined by the following Equation (FIGS. 2A and 2B). Amount of HTLV-1 proviral DNA: copy number of HTLV-1(pX)/100 PBMC cells=(copy number of pX)/(copy number of β-actin/2)×100
Cultivation was performed in the same manner, and the absolute amount of the HTLV-1 proviral DNA per well was determined (FIGS. 2C and 2D).
In the same manner as above, 1×10^−6 μg/mL-10 μg/mL of KM2760 were added to culture PBMCs derived from HAM patients, and at 7 days after cultivation, the amounts of HTLV-1 proviral DNA were determined (FIG. 2E).
(§3) In all assays, the proliferation rate (FIGS. 3A and 3B) or the amount of HTLV-1 proviral DNA (FIGS. 3C and 3D) was represented as a percentage, when the well treated with no drug was taken as 100%.

[2] = test system: IL-2 production in PBMCs of HAM patients; assay: IL-2 production in PBMC culture supernatant (Cytometric Bead Array); type: cell-based, human; conditions: 7 days culture; combination: 0.1 μg/mL PSL+0.01 μg/mL-10 μg/mL KM2760 versus KM2760 alone
Protocol: (§4) In order to examine the inhibitory effect of anti-human CCR4 antibody and adrenocorticosteroid drug on inflammatory cytokine production in PBMCs of HAM patients, PBMCs of HAM patients were cultured, and the concentrations of IFN-γ, TNF-α, IL-2, IL-6 and IL-10 in the culture supernatants were measured.
(§5) PBMCs of HAM patients were cultured for 7 days in the same manner as in Example 2, and the culture supernatants were recovered after cultivation. The concentrations of the cytokines were measured using kits for measuring cytokine concentrations (all manufactured by BD Biosciences), Human IFNγ Flex kit (cat. 560111), Human TNFα Flex kit (cat. 560122), Human IL-6 Flex kit (cat. 558276), Human IL-2 Flex kit (cat. 558270) and Human IL-10 Flex kit (cat. 558274) by BD™ Cytometric Bead Array (CBA) (FIGS. 4A, 4B, 5A, 5B, 6A, 6B, 7A, 7B, 8A and 8B).
(§6) Inhibitory effects of anti-human CCR4 chimeric antibody KM2760 and anti-human CCR4 humanized antibody Poteligeo® (manufactured by Kyowa Hakko Kirin co., Ltd.) on spontaneous cell proliferation, the amount of HTLV-1 provirus DNA, and the cytokine production in PBMCs of HAM patients (N=11) were examined in the same manner as in Examples 1, 2, and 4.

[3] = test system: PBMCs derived from HAM patients; assay: Spontaneous cell proliferation of PBMCs by 3H-thymidine up-take; type: cell-based, human; conditions: for cell proliferation compared to non-drug treatment: Example 3, FIGS. 3A and 3B
Excerpt: PBMCs of HAM patients and asymptomatic HTLV-1 carriers (AC) were isolated from peripheral bloods that were collected from 9 HAM patients and 8 asymptomatic HTLV-1 carriers by Ficoll density gradient centrifugation, and frozen and stored in liquid nitrogen until assay. The isolated PBMCs were suspended in an RPMI1640 medium containing 10% fetal bovine serum (hereinafter, abbreviated to FBS), 1% penicillin and 1% streptomycin (manufactured by Wako Pure Chemical Industries, Ltd.) (hereinafter, abbreviated to RPMI medium) without proliferation stimulation, and seeded at a density of 1×10^5 cells/100 μL/well in a 96-well round bottom plate. A well added with 1 μg/mL of prednisolone (PSL) was prepared as a positive control, and wells added with 0-10 μg/mL of anti-human CCR4 chimeric antibody KM2760 were prepared as a subject antibody. Cultivation was performed under the conditions of 37° C. and 5% CO2 for 6 days.
After cultivation, 1 μCi ^3H-thymidine was added to each well, and further cultured for 16 hours. After cultivation, the cells were recovered, and specific radioactivity was measured using a liquid scintillation counter (Micro Beta) to determine cell proliferation rate (%) (FIGS. 1A, 1B). The up-take of ^3H-thymidine in the non-drug-treated well was taken as 100%, and the ratio was determined.
In the same manner as in Example 1, PBMCs isolated from the peripheral blood of HAM patient were seeded in a 96-well bottom plate. A well added with 0.1 or 1 μg/mL of prednisolone and wells added with 0.1 μg/mL prednisolone+0.01-10 μg/mL of anti-human CCR4 chimeric antibody KM2760 were prepared to perform cultivation.
For cell proliferation assay by ^3H-thymidine up-take, ^3H-thymidine was added at 6 days after cultivation in the same manner as in Example 1, and further cultured for 16 hours. Further, the amount of HTLV-1 proviral DNA was determined at 7 days after cultivation in the same manner as in Example 2.
as §3, §6

[4] = cited from earlier work
[5] = test system: TNF-α production in PBMCs of HAM patients; assay: TNF-α production in PBMC culture supernatant (Cytometric Bead Array); type: cell-based, human; conditions: 7 days culture; combination: 0.1 μg/mL PSL+0.01 μg/mL-10 μg/mL KM2760 versus KM2760 alone
Protocol: as §4, §5, §6

[6] = test system: IL-6 production in PBMCs of HAM patients; assay: IL-6 production in PBMC culture supernatant (Cytometric Bead Array); type: cell-based, human; conditions: 7 days culture; combination: 0.1 μg/mL PSL+0.01 μg/mL-10 μg/mL KM2760 versus KM2760 alone
Protocol: as §4, §5, §6

[7] = test system: HTLV-1 proviral DNA in PBMCs derived from asymptomatic HTLV-1 carriers (ACs); assay: Amount of HTLV-1 proviral DNA in PBMCs by real time-PCR (asymptomatic carriers); type: cell-based; conditions: 1 μg/mL; 7 days; AC N=8, FIG. 2F
Protocol: The amount of HTLV-1 proviral DNA was quantified in accordance with the method described in Yamano et al (Blood, 2002; 99: 88-94) and Nagai et al (J. Infectious Diseases; 2001; 183: 197-205).
At 7 days after cultivation, cells were recovered from each well, and the recovered cells were suspended in a buffer containing 50 mM Tris-HCl (pH 8.0), 20 mM EDTA, 0.1 M NaCl and 1% SDS (hereinafter, referred to as lysis buffer), and then 150 μg/mL of proteinase K (manufactured by Wako Pure Chemical Industries, Ltd.) was added thereto, followed by shaking at 55° C. overnight. Then, genomic DNAs were extracted from PBMCs of HAM patients using phenol/chloroform.
as §1
as §2, with “Amount of HTLV-1 proviral DNA: copy number of HTLV-1(pX)/100 PBMC cells=(copy number of pX)/(copy number of β-actin/2)×100” left out

[8] = test system: PBMCs derived from HAM patients; assay: Actual number of cells after cultivation of PBMCs; type: cell-based, human; conditions: 1 μg/mL; 7 days after cultivation; FIG. 1C
Protocol: In the same manner, PBMCs derived from HAM patients were cultured by addition of 1×10^−6 μg/mL-10 μg/mL of KM2760, and at 7 days after cultivation, the actual number of cells was counted (FIG. 1C).

[9] = test system: IFN-γ production in PBMCs of HAM patients; assay: IFN-γ production in PBMC culture supernatant (Cytometric Bead Array); type: cell-based, human; conditions: 7 days culture; combination: 0.1 μg/mL PSL+0.01 μg/mL-10 μg/mL KM2760 versus KM2760 alone
Protocol: as §4, §5, §6

[10] = test system: IL-10 production in PBMCs of HAM patients; assay: IL-10 production in PBMC culture supernatant (Cytometric Bead Array); type: cell-based, human; conditions: 7 days culture; combination: 0.1 μg/mL PSL+0.01 μg/mL-10 μg/mL KM2760 versus KM2760 alone
Protocol: as §4, §5, §6

[11] = PSL 1 μg/mL, antibody up to 10 μg/mL, 7 days, compared to non-drug treatment

| Molecule | effect on the amount of proviral DNA (in words) ([1]; 1 μg/mL, 7 days, FIG. 2E) | absolute amount of HTLV-1 proviral DNA of each well compared to non-drug treatment ([1]; 1 μg/mL, Example 3, FIGS. 3E and 3F) | absolute amount of HTLV-1 proviral DNA per well, fraction of non-drug treatment ([1]; 1 μg/mL, FIGS. 2C and 2D) | effect on the amount of HTLV-1 proviral DNA (in words) ([1]; 0.1 or 1 μg/mL, Example 3) | effect on the amount of HTLV-1 proviral DNA (in words) [1, 11] | inhibition of IL-2 production (in words) [2] | cell proliferation compared to non-drug treatment ([3]; 0.1 μg/mL) | cell proliferation compared to non-drug treatment ([3]; 1 μg/mL) | inhibition at 1 µg/mL ([3]; Homo sapiens, PBMC, 1 μg/mL, 6 days + 16 h 3H-thymidine, 9 HAM patients, FIG. 1B, read-out: cell proliferation inhibition compared to non-drug treatment) | blood concentration ([4]; oral administration of 50 mg to a clinical patient) | blood concentration ([4]; oral administration of a low dose of 5 mg to a clinical patient) | inhibition of TNF-α production (in words) [5] | inhibition of IL-6 production (in words) [6] | effect on the amount of proviral DNA (in words) [7] | number of cells compared to non-drug treatment [8] | inhibition of IFN-γ production (in words) [9] | inhibition of spontaneous cell proliferation (in words) ([3]; antibody 0-10 μg/mL, 3H-thymidine up-take) | inhibition of IL-10 production (in words) [10] |
| --- | --- | --- | --- | --- | --- | --- | --- | --- | --- | --- | --- | --- | --- | --- | --- | --- | --- | --- |
| C[C@]12C=CC(=O)C=C1CC[C@@H]1[C@@H]2[C@@H](O)C[C@@]2(C)[C@H]1CC[C@]2(O)C(=O)CO [PSL, prednisolone] | almost didn't reduce the amount of proviral DNA | approximately 50% | ⅓ | almost didn't reduce the amount of HTLV-1 proviral DNA | did not show the effect of reducing the amount of HTLV-1 proviral DNA | inhibited the production of all cytokines | approximately 70% | ~50% | ~50% | approximately 1 μg/mL | approximately 0.1 μg/mL | inhibited the production of all cytokines | inhibited the production of all cytokines | almost didn't reduce the amount of proviral DNA | approximately 50% | inhibited the production of all cytokines |  |  |
| B1 |  |  |  |  | inhibited | inhibited |  |  |  |  |  | inhibited | inhibited |  |  | inhibited | inhibited | inhibited |
